Source: patent publication US12570655B2, “Cysteine covalent modifiers of AKT1 and uses thereof” (Terremoto Biosciences, Inc., priority 2023, dated 2026)

Key:
Assay type in all cases: cell-based
[1] = biological target: T1, AKT1 WT (Homo sapiens, UniProt P31749); assay: Live cell AKT1 WT target engagement by NanoBRET competitive probe displacement; settings: HEK293 cells transfected with kinase-NanoLuciferase fusion, 2 h at 37° C.
T1 construct: expressed in transfected cells; host or cells: HEK293
Summary of the method: (§1)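 Live-cell competitive tracer displacement in HEK293 expressing NanoLuciferase-tagged kinase. Compound and ATP-competitive tracer (~EC50) are co-incubated 2 h at 37 °C; BRET (E600/E460) gives IC50.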

[2] = biological target: T2, AKT2 (Homo sapiens, UniProt P31751); assay: Live cell AKT2 target engagement by NanoBRET competitive probe displacement; settings: HEK293 cells transfected with kinase-NanoLuciferase fusion, 2 h at 37° C.
T2 construct: expressed in transfected cells; host or cells: HEK293
Summary of the method: as §1

[3] = biological target: T3, AKT1 E17K (Homo sapiens, UniProt P31749, E17K); assay: Live cell AKT1 E17K target engagement by NanoBRET competitive probe displacement; settings: HEK293 cells transfected with kinase-NanoLuciferase fusion, 2 h at 37° C.
T3 construct: expressed in transfected cells; host or cells: HEK293
Summary of the method: as §1

[4] = system: LAPC4 prostate cancer cells; assay: Antiproliferative effects in LAPC4 cells (CellTiter Glo); settings: Homo sapiens, LAPC4, 72 h, LAPC4 cells (AKT1 E17K allele), read-out: LAPC4 proliferation IC50
Summary of the method: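 Cells grown in IMDM supplemented with 12% FBS plus 1% P/S were treated for 72 h with DMSO-dissolved compounds. ATP-based luminescence was fitted to a log(inhibitor) versus response Hill model, giving IC50.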

T3 sequence (P31749 whole entry E17K, the tested form may be a part): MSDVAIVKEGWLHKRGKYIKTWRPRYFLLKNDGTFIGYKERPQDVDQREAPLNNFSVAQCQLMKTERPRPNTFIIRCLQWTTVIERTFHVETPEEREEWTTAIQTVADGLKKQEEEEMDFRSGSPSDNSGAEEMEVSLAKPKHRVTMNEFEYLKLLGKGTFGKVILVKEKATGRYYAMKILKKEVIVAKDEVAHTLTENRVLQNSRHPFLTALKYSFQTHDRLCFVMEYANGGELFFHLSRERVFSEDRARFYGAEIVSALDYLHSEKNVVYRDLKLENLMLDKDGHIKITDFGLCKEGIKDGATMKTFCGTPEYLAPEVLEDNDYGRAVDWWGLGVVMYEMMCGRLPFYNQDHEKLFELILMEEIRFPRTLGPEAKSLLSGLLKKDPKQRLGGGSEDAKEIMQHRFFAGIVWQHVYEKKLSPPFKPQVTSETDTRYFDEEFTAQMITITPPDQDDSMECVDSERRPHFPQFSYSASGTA
T1 sequence (P31749 whole entry, the tested form may be a part): as the sequence (P31749 whole entry E17K, the tested form may be a part) above, with K17E counted along it
T2 sequence (P31751 whole entry, the tested form may be a part): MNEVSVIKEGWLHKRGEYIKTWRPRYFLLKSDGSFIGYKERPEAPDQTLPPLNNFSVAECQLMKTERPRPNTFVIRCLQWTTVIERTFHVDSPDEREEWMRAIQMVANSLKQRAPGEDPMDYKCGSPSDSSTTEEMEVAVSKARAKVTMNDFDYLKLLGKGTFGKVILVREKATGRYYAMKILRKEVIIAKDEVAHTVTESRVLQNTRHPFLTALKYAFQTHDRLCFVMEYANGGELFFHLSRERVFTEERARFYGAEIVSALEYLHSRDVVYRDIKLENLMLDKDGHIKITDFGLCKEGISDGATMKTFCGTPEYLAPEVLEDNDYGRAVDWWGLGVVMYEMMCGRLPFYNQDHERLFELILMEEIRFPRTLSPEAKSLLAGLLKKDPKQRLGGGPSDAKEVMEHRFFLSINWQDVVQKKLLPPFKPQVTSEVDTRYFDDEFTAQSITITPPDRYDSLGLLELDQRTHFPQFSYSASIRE

C=CC(=O)N1CCC(N[C@H]2CCc3cc(-n4c(-c5cccnc5N)nc5ccc(-c6cccnc6)nc54)ccc32)CC1 [Example 110, (S)-1-(4-((5-(2-(2-aminopyridin-3-yl)-5-(pyridin-3-yl)-3H-imidazo[4,5-b]pyridin-3-yl)-2,3-dihydro-1H-inden-1-yl)amino)piperidin-1-yl)prop-2-en-1-one]
IC50 [1]: 21.8 nM | IC50 [2]: 628 nM | IC50 [3]: 141 nM | IC50 [4]: 298 nM

C=CC(=O)N1CCC(N[C@@H]2c3ccc(-n4c(-c5cccnc5N)nc5ccc(-n6cccn6)nc54)cc3CC2(F)F)CC1 [Example 119, 1-(4-{[(1R)-5-[2-(2-aminopyridin-3-yl)-5-(pyrazol-1-yl)imidazo[4,5-b]pyridin-3-yl]-2,2-difluoro-1,3-dihydroinden-1-yl]amino}piperidin-1-yl)prop-2-en-1-one]
IC50 [1]: 85.6 nM | IC50 [2]: 3590 nM | IC50 [3]: 582 nM | IC50 [4]: 595 nM

C=CC(=O)N1CCC(N[C@H]2CCc3cc(-n4c(-c5cccnc5N)nc5ccc(-c6cnccn6)nc54)ccc32)CC1 [Example 120, (S)-1-(4-((5-(2-(2-aminopyridin-3-yl)-5-(pyrazin-2-yl)-3H-imidazo[4,5-b]pyridin-3-yl)-2,3-dihydro-1H-inden-1-yl)amino)piperidin-1-yl)prop-2-en-1-one]
IC50 [1]: 23.6 nM | IC50 [2]: 885 nM | IC50 [3]: 185 nM | IC50 [4]: 814 nM

C=CC(=O)N1CCC(N[C@H]2CCc3cc(-n4c(-c5cccnc5N)nc5ccc(-c6cc7n(n6)CCOC7)nc54)ccc32)CC1 [Example 121, (S)-1-(4-((5-(2-(2-aminopyridin-3-yl)-5-(6,7-dihydro-4H-pyrazolo[5,1-c][1,4]oxazin-2-yl)-3H-imidazo[4,5-b]pyridin-3-yl)-2,3-dihydro-1H-inden-1-yl)amino)piperidin-1-yl)prop-2-en-1-one]
IC50 [1]: 43.3 nM | IC50 [2]: 358 nM | IC50 [3]: 174 nM | IC50 [4]: 248 nM

Nc1ncccc1-c1nc2ccc(-n3cccn3)nc2n1-c1ccc2c(c1)CC[C@@H]2NC1CCN(C(=O)[C@H]2CO2)CC1 [Example 122, 3-{3-[(1S)-1-({1-[(2R)-oxirane-2-carbonyl]piperidin-4-yl}amino)-2,3-dihydro-1H-inden-5-yl]-5-(pyrazol-1-yl)imidazo[4,5-b]pyridin-2-yl}pyridin-2-amine]
IC50 [1]: 41.3 nM | IC50 [2]: 305 nM | IC50 [3]: 112 nM | IC50 [4]: 116 nM

Nc1ncccc1-c1nc2ccc(-n3cccn3)nc2n1-c1ccc2c(c1)CC[C@@H]2NC1CCN(C(=O)[C@@H]2CO2)CC1 [Example 123, 3-{3-[(1S)-1-({1-[(2S)-oxirane-2-carbonyl]piperidin-4-yl}amino)-2,3-dihydro-1H-inden-5-yl]-5-(pyrazol-1-yl)imidazo[4,5-b]pyridin-2-yl}pyridin-2-amine]
IC50 [1]: 30.9 nM | IC50 [2]: 393 nM | IC50 [3]: 42.4 nM | IC50 [4]: 736 nM

CN(CC#N)C(=O)N1CCC(N[C@H]2CCc3cc(-n4c(-c5cccnc5N)nc5ccc(-n6cccn6)nc54)ccc32)CC1 [Example 128, 4-{[(1S)-5-[2-(2-aminopyridin-3-yl)-5-(pyrazol-1-yl)imidazo[4,5-b]pyridin-3-yl]-2,3-dihydro-1H-inden-1-yl]amino-N}-(cyanomethyl)-N-methylpiperidine-1-carboxamide]
IC50 [1]: 10.6 nM | IC50 [2]: 43 nM | IC50 [3]: 8.62 nM | IC50 [4]: 44.8 nM

C=CC(=O)N1CCC(N[C@@H]2CCc3cc(-n4c(-c5cccnc5N)nc5ccc(-n6cccn6)nc54)ccc32)CC1 [Example 149, 1-(4-{[(1R)-5-[2-(2-aminopyridin-3-yl)-5-(pyrazol-1-yl)imidazo[4,5-b]pyridin-3-yl]-2,3-dihydro-1H-inden-1-yl]amino}piperidin-1-yl)prop-2-en-1-one]
IC50 [1]: 23.5 nM | IC50 [2]: 189 nM | IC50 [3]: 60.8 nM | IC50 [4]: 109 nM

C=CC(=O)N1CCC(N[C@H]2CCc3cc(-n4c(-c5ccccc5)nc5ccc(-n6cccn6)nc54)ccc32)CC1 [Example 152, (S)-1-(4-((5-(2-phenyl-5-(1H-pyrazol-1-yl)-3H-imidazo[4,5-b]pyridin-3-yl)-2,3-dihydro-1H-inden-1-yl)amino)piperidin-1-yl)prop-2-en-1-one]
IC50 [1]: > 1000 nM | IC50 [2]: > 10000 nM | IC50 [3]: > 1000 nM | IC50 [4]: > 10000 nM

C=CC(=O)N1CCC(N[C@H]2CCc3cc(-n4c(-c5cccnc5)nc5ccc(-n6cccn6)nc54)ccc32)CC1 [Example 153, (S)-1-(4-((5-(5-(1H-pyrazol-1-yl)-2-(pyridin-3-yl)-3H-imidazo[4,5-b]pyridin-3-yl)-2,3-dihydro-1H-inden-1-yl)amino)piperidin-1-yl)prop-2-en-1-one]
IC50 [1]: 26.9 nM | IC50 [2]: 1080 nM | IC50 [3]: 168 nM | IC50 [4]: 362 nM

C=CC(=O)N1CCC(N[C@H]2CCCc3cc(-n4c(-c5cccnc5N)nc5ccc(-n6cccn6)nc54)ccc32)CC1 [Example 154, (S)-1-(4-((6-(2-(2-aminopyridin-3-yl)-5-(1H-pyrazol-1-yl)-3H-imidazo[4,5-b]pyridin-3-yl)-1,2,3,4-tetrahydronaphthalen-1-yl)amino)piperidin-1-yl)prop-2-en-1-one]
IC50 [1]: 301 nM | IC50 [2]: > 10000 nM | IC50 [3]: > 1000 nM | IC50 [4]: > 10000 nM

C=CC(=O)N1CCC(N[C@H]2CCc3cc(-n4c(-c5cccnc5N)nc5ccc(-n6cccn6)nc54)ccc32)C(C#N)C1 (stereo partly drawn) [Example 157, (3*,4*)-1-acryloyl-4-(((S)-5-(2-(2-aminopyridin-3-yl)-5-(1H-pyrazol-1-yl)-3H-imidazo[4,5-b]pyridin-3-yl)-2,3-dihydro-1H-inden-1-yl)amino)piperidine-3-carbonitrile]
IC50 [1]: 17.2 nM | IC50 [2]: 216 nM | IC50 [3]: 54.5 nM | IC50 [4]: 110 nM

C=CC(=O)N1CC(N2CCC(N[C@H]3CCc4cc(-n5c(-c6cccnc6N)nc6ccc(-n7cccn7)nc65)ccc43)CC2)C1 [Example 158, (S)-1-(3-(4-((5-(2-(2-aminopyridin-3-yl)-5-(1H-pyrazol-1-yl)-3H-imidazo[4,5-b]pyridin-3-yl)-2,3-dihydro-1H-inden-1-yl)amino)piperidin-1-yl)azetidin-1-yl)prop-2-en-1-one]
IC50 [1]: 72.6 nM | IC50 [2]: 1870 nM | IC50 [3]: 358 nM | IC50 [4]: 1090 nM

C=CC(=O)N1CCC(N[C@H]2CCc3cc(-n4c(-c5cccnc5N)nc5ccc(-c6nccs6)nc54)ccc32)CC1 [Example 159, 1-(4-{[(1S)-5-[2-(2-aminopyridin-3-yl)-5-(1,3-thiazol-2-yl)imidazo[4,5-b]pyridin-3-yl]-2,3-dihydro-1H-inden-1-yl]amino}piperidin-1-yl)prop-2-en-1-one]
IC50 [1]: 20 nM | IC50 [2]: 146 nM | IC50 [3]: 56.2 nM | IC50 [4]: 71.2 nM

C=CC(=O)N1CCC(N[C@H]2CCc3cc(-n4c(-c5cccnc5N)nc5ccc(-c6cnn(C)n6)nc54)ccc32)CC1 [Example 160, 1-(4-{[(1S)-5-[2-(2-aminopyridin-3-yl)-5-(2-methyl-1,2,3-triazol-4-yl)imidazo[4,5-b]pyridin-3-yl]-2,3-dihydro-1H-inden-1-yl]amino}piperidin-1-yl)prop-2-en-1-one]
IC50 [1]: 9.31 nM | IC50 [2]: 29.6 nM | IC50 [3]: 26.9 nM | IC50 [4]: 27.4 nM

C=CC(=O)N1CCC(N(CC2COC2)[C@H]2CCc3cc(-n4c(-c5cccnc5N)nc5ccc(-n6cccn6)nc54)ccc32)CC1 [Example 161, 1-(4-{[(1S)-5-[2-(2-aminopyridin-3-yl)-5-(pyrazol-1-yl)imidazo[4,5-b]pyridin-3-yl]-2,3-dihydro-1H-inden-1-yl](oxetan-3-ylmethyl)amino}piperidin-1-yl)prop-2-en-1-one]
IC50 [1]: 18.3 nM | IC50 [2]: 198 nM | IC50 [3]: 110 nM | IC50 [4]: 100 nM

C=CC(=O)N(C)CCCN[C@H]1CCc2cc(-n3c(-c4cccnc4N)nc4ccc(-n5cccn5)nc43)ccc21 [Example 166, (S)-N-(3-((5-(2-(2-aminopyridin-3-yl)-5-(1H-pyrazol-1-yl)-3H-imidazo[4,5-b]pyridin-3-yl)-2,3-dihydro-1H-inden-1-yl)amino)propyl)-N-methylacrylamide]
IC50 [1]: 21.9 nM | IC50 [2]: 257 nM | IC50 [3]: 74 nM | IC50 [4]: 116 nM

C=CC(=O)N1CCC(c2cn([C@H]3CCc4cc(-n5c(-c6cccnc6N)nc6ccc(-n7cccn7)nc65)ccc43)nn2)CC1 [Example 169, 1-(4-{1-[(1S)-5-[2-(2-aminopyridin-3-yl)-5-(pyrazol-1-yl)imidazo[4,5-b]pyridin-3-yl]-2,3-dihydro-1H-inden-1-yl]-1,2,3-triazol-4-yl}piperidin-1-yl)prop-2-en-1-one]
IC50 [1]: 593 nM | IC50 [2]: 115 nM | IC50 [3]: 53.7 nM | IC50 [4]: 565 nM

Nc1ncccc1-c1nc2ccc(-n3cccn3)nc2n1-c1ccc2c(c1)CC[C@@H]2NC1CCN(C(=O)C(F)Cl)CC1 (stereo partly drawn) [Example 173, 1-(4-{[(1S)-5-[2-(2-aminopyridin-3-yl)-5-(pyrazol-1-yl)imidazo[4,5-b]pyridin-3-yl]-2,3-dihydro-1H-inden-1-yl]amino}piperidin-1-yl)-2-chloro-2-fluoroethanone]
IC50 [1]: 1340 nM | IC50 [2]: 324 nM | IC50 [3]: 56.5 nM | IC50 [4]: 748 nM

C#Cc1cccc(-c2ccc3nc(-c4cccnc4N)n(-c4ccc5c(c4)CC[C@@H]5NC4CCN(C(=O)C=C)CC4)c3n2)c1 [Example 178, 1-(4-{[(1S)-5-[2-(2-aminopyridin-3-yl)-5-(3-ethynylphenyl)imidazo[4,5-b]pyridin-3-yl]-2,3-dihydro-1H-inden-1-yl]amino}piperidin-1-yl)prop-2-en-1-one]
IC50 [1]: 33.2 nM | IC50 [2]: 26.7 nM | IC50 [3]: 18.1 nM | IC50 [4]: 71 nM
